Square brackets hold non-standard residues; d marks the D form. Ends that are not written are not given here. Ahx = NCCCCCC(=O)O; βAla = NCCC(=O)O
Experiments:
HeLa 654 cells [1] = experiment: HeLa-654 eGFP assay (corrective splicing / exon skipping by PMO IVS2-654); type: cell-based, human; settings: 5 μM, 22 h; for FOLD OVER PMO: eGFP fluorescence of PMO-peptide conjugate relative to unconjugated PMO
Procedure: With the 36 constructs synthesized, the ability to modulate PMO activity using the modified HeLa cell assay was tested. The HeLa-654 cells were stably transfected to express a nonfluorescent eGFP protein. The eGFP gene is interrupted by a mutant intron from the human β-globin gene (IVS2-654). The insertion alters pre-mRNA splicing to cause retention of a fragment in the mature mRNA that results in a nonfluorescent protein. PMO IVS2-654 base-pairs with the B-globin insertion, modifies mRNA splicing, and thereby leads to expression of fluorescent eGFP.
For treatment, the crude reaction mixture was diluted to 5 μM in media. The concentration of the modular construct was calculated based on the original concentration of the module 1-2 conjugate mixed in the reaction. Using media containing 10% fetal bovine serum (FBS), the cells were treated with each construct for 22 hours, after which the cellular fluorescence was measured by flow cytometry.
From the lists of hundreds of predicted peptide sequences, twenty candidates were selected that varied in length, charge, and predicted activity to synthesize and test. Just as with the PMO-peptide library, the PMO-Mach constructs were first tested for PMO delivery in the HeLa 654 assay at 5 μM in complete media for 22 hours and analyzed by flow cytometry (FIG. 14). Experiments were conducted using three technical triplicates and two or three biological replicates.
(§1) HeLa 654 cells were maintained in MEM supplemented with 10% (v/v) fetal bovine serum (FBS) and 1% (v/v) penicillin-streptomycin at 37° C. and 5% CO2. Eighteen hours prior to treatment, the cells were plated at a density of 5,000 cells per well in a 96-well plate in MEM supplemented with 10% FBS and 1% penicillin-streptomycin. The day of the experiment, the 384 well plate containing the crude reaction mixtures in DMSO was diluted to 100 μM by the addition of 16.8 μL of PBS to the 3.2 μL reaction mixture. Then, each construct was diluted to 5 μM in MEM supplemented with 10% FBS and 1% penicillin-streptomycin. Cells were incubated with each conjugate at a concentration of 5 μM for 22 hours at 37° C. and 5% CO2. Next, the treatment media was aspirated the cells were incubated with Trypsin-EDTA 0.25% for 15 min at 37° C. and 5% CO2, washed 1× with PBS, and resuspended in PBS with 2% FBS and 2 μg/mL propidium iodide. Flow cytometry analysis was carried out on a BD LSRII flow cytometer. Gates were applied to the data to ensure that cells that were highly positive for propidium iodide or had forward/side scatter readings that were sufficiently different from the main cell population were excluded. Each sample was capped at 5,000 gated events.
Analysis was conducted using Graphpad Prism 7. For each sample, the mean fluorescence intensity and the number of gated cells was measured (FIGS. 8 and 9) and the intensity multiplied by the cell number was calculated (FIG. 7).

HeLa 654 cells [2] = experiment: Cytotoxicity by gated cell count and propidium iodide staining in flow cytometry; type: cell-based, human; settings: at the concentrations tested in dose-response, 22 h
Text: The different modules led to several noticeable trends in the level of cellular fluorescence (FIG. 6). When module 2 was DPV6, the overall construct consistently led to high fluorescence, regardless of which peptides were placed in module 3 and 4. However, when either pVEC or TP10 was placed in module 2, minor cellular fluorescence was observed. A gated cell count was used during flow cytometry as an indirect read-out to control for the toxicity of the compounds. Highly toxic compounds led to a reduction in overall cell count and non-viable cells were gated out based upon propidium iodide staining. In this experiment, it was observed that when the module 3 peptide was the nuclear localization sequence KRVK, lower cell counts were consistently observed.
In the same format as described above, HeLa 654 cells were treated with varying concentrations of Mach 2, 3, 4, and 7 for 22 hours and analyzed by flow cytometry.
as §1

| Compound | PMO delivery / activity, result in words (HeLa 654 cells [1]) | FOLD OVER PMO (HeLa 654 cells [1]) | cytotoxicity as determined by cell count and PI staining (HeLa 654 cells [2]) |
| --- | --- | --- | --- |
| CC[C@H](C)[C@H](NC(=O)[C@H](CC(C)C)NC(=O)[C@H](CCCNC(=N)N)NC(=O)CCCCCNC(=O)[C@H](Cc1ccc(O)cc1)NC(=O)[C@H](CCCCN)NC(=O)CCCCCNC(=O)[C@H](C)NC(=O)[C@H](CO)NC(=O)[C@H](CCCNC(=N)N)NC(=O)[C@H](C)NC(=O)[C@H](CCCCN)NC(=O)[C@H](Cc1c[nH]c2ccccc12)NC(=O)[C@H](CC(C)C)NC(=O)[C@H](Cc1c[nH]c2ccccc12)NC(=O)[C@H](CCCCN)NC(=O)[C@H](CCCCN)NC(=O)[C@H](CCCCN)NC(=O)[C@H](CCC(N)=O)NC(=O)[C@H](CCCCN)NC(=O)[C@H](CO)NC(=O)[C@H](CO)NC(=O)[C@H](CCCCN)NC(=O)[C@H](CCCCN)NC(=O)[C@H](CC(C)C)NC(=O)[C@H](CCCNC(=N)N)NC(=O)[C@H](CCCCN)NC(=O)[C@H](CCCCN)NC(=O)[C@H](CCCCN)NC(=O)[C@H](Cc1c[nH]c2ccccc12)NC(=O)[C@H](CC(C)C)NC(=O)[C@H](C)NC(=O)[C@H](C)NC(=O)[C@H](C)NC(=O)[C@@H]1CCCN1C(=O)[C@@H](NC(=O)[C@H](CCCCN)NC(=O)[C@H](Cc1c[nH]c2ccccc12)NC(=O)[C@H](C)NC(=O)[C@H](CCCNC(=N)N)NC(=O)[C@H](C)NC(=O)[C@H](C)NC(=O)CCNC(=O)[C@H](CCC(N)=O)NC(=O)[C@@H](NC(=O)[C@H](C)NC(=O)CCCCCNC(=O)[C@@H]1CCCN1C(=O)[C@H](Cc1c[nH]cn1)NC(=O)[C@H](CCCCN)NC(=O)CCCCCNC(=O)CCCCn1nnc2c1-c1ccccc1N(C(=O)CCCCC(=O)N1C[C@@H](COP(=O)(N(C)C)N3C[C@@H](COP(=O)(N(C)C)N4C[C@@H](COP(=O)(N(C)C)N5C[C@@H](COP(=O)(N(C)C)N6C[C@@H](COP(=O)(N(C)C)N7C[C@@H](COP(=O)(N(C)C)N8C[C@@H](COP(=O)(N(C)C)N9C[C@@H](COP(=O)(N(C)C)N%10C[C@@H](COP(=O)(N(C)C)N%11C[C@@H](COP(=O)(N(C)C)N%12C[C@@H](COP(=O)(N(C)C)N%13C[C@@H](COP(=O)(N(C)C)N%14C[C@@H](COP(=O)(N(C)C)N%15C[C@@H](COP(=O)(N(C)C)N%16C[C@@H](COP(=O)(N(C)C)N%17C[C@@H](COP(=O)(N(C)C)N%18C[C@@H](COP(=O)(N(C)C)N%19C[C@@H](COP(=O)(N(C)C)N%20CCN(C(=O)OCCOCCOCCO)CC%20)O[C@@H](n%20cnc%21c(=O)[nH]c(N)nc%21%20)C%19)O[C@@H](n%19ccc(N)nc%19=O)C%18)O[C@@H](n%18cc(C)c(=O)[nH]c%18=O)C%17)O[C@@H](n%17cnc%18c(N)ncnc%18%17)C%16)O[C@@H](n%16cc(C)c(=O)[nH]c%16=O)C%15)O[C@@H](n%15cc(C)c(=O)[nH]c%15=O)C%14)O[C@@H](n%14cnc%15c(N)ncnc%15%14)C%13)O[C@@H](n%13ccc(N)nc%13=O)C%12)O[C@@H](n%12ccc(N)nc%12=O)C%11)O[C@@H](n%11cc(C)c(=O)[nH]c%11=O)C%10)O[C@@H](n%10cc(C)c(=O)[nH]c%10=O)C9)O[C@@H](n9cnc%10c(N)ncnc%109)C8)O[C@@H](n8cnc9c(N)ncnc98)C7)O[C@@H](n7ccc(N)nc7=O)C6)O[C@@H](n6ccc(N)nc6=O)C5)O[C@@H](n5ccc(N)nc5=O)C4)O[C@@H](n4cnc5c(N)ncnc54)C3)O[C@@H](n3cnc4c(=O)[nH]c(N)nc43)C1)Cc1ccccc1-2)C(C)C)C(C)C)C(N)=O (stereo partly shown) [MACH 7] | nearly identical | 36 | no cytotoxicity |
| CC[C@H](C)[C@H](NC(=O)[C@H](CO)NC(=O)[C@H](CC(C)C)NC(=O)[C@H](CCCCN)NC(=O)CNC(=O)[C@H](CCCCN)NC(=O)[C@@H]1CCCN1C(=O)[C@H](Cc1c[nH]c2ccccc12)NC(=O)[C@H](CC(N)=O)NC(=O)[C@H](CCCCN)NC(=O)[C@H](CCCCN)NC(=O)[C@H](CC(N)=O)NC(=O)[C@H](C)NC(=O)[C@H](CCCCN)NC(=O)[C@H](CO)NC(=O)[C@H](CCCCN)NC(=O)[C@H](CCCNC(=N)N)NC(=O)[C@H](CCCCN)NC(=O)[C@H](CCCCN)NC(=O)[C@H](CCC(N)=O)NC(=O)CCCCn1nnc2c1-c1ccccc1N(C(=O)CCCCC(=O)N1C[C@@H](COP(=O)(N(C)C)N3C[C@@H](COP(=O)(N(C)C)N4C[C@@H](COP(=O)(N(C)C)N5C[C@@H](COP(=O)(N(C)C)N6C[C@@H](COP(=O)(N(C)C)N7C[C@@H](COP(=O)(N(C)C)N8C[C@@H](COP(=O)(N(C)C)N9C[C@@H](COP(=O)(N(C)C)N%10C[C@@H](COP(=O)(N(C)C)N%11C[C@@H](COP(=O)(N(C)C)N%12C[C@@H](COP(=O)(N(C)C)N%13C[C@@H](COP(=O)(N(C)C)N%14C[C@@H](COP(=O)(N(C)C)N%15C[C@@H](COP(=O)(N(C)C)N%16C[C@@H](COP(=O)(N(C)C)N%17C[C@@H](COP(=O)(N(C)C)N%18C[C@@H](COP(=O)(N(C)C)N%19C[C@@H](COP(=O)(N(C)C)N%20CCN(C(=O)OCCOCCOCCO)CC%20)O[C@@H](n%20cnc%21c(=O)[nH]c(N)nc%21%20)C%19)O[C@@H](n%19ccc(N)nc%19=O)C%18)O[C@@H](n%18cc(C)c(=O)[nH]c%18=O)C%17)O[C@@H](n%17cnc%18c(N)ncnc%18%17)C%16)O[C@@H](n%16cc(C)c(=O)[nH]c%16=O)C%15)O[C@@H](n%15cc(C)c(=O)[nH]c%15=O)C%14)O[C@@H](n%14cnc%15c(N)ncnc%15%14)C%13)O[C@@H](n%13ccc(N)nc%13=O)C%12)O[C@@H](n%12ccc(N)nc%12=O)C%11)O[C@@H](n%11cc(C)c(=O)[nH]c%11=O)C%10)O[C@@H](n%10cc(C)c(=O)[nH]c%10=O)C9)O[C@@H](n9cnc%10c(N)ncnc%109)C8)O[C@@H](n8cnc9c(N)ncnc98)C7)O[C@@H](n7ccc(N)nc7=O)C6)O[C@@H](n6ccc(N)nc6=O)C5)O[C@@H](n5ccc(N)nc5=O)C4)O[C@@H](n4cnc5c(N)ncnc54)C3)O[C@@H](n3cnc4c(=O)[nH]c(N)nc43)C1)Cc1ccccc1-2)C(=O)N[C@@H](Cc1c[nH]cn1)C(=O)N[C@@H](C)C(=O)N[C@@H](CCCCN)C(=O)N[C@@H](CC(=O)O)C(=O)N[C@@H](Cc1ccc(O)cc1)C(=O)N[C@@H](CCCCN)C(=O)N[C@@H](CCC(N)=O)C(=O)NCC(=O)N1CCC[C@H]1C(=O)N[C@@H](CCCCN)C(=O)N[C@@H](C)C(=O)N[C@@H](CCCCN)C(=O)NCCCCCC(=O)N[C@@H](CCCNC(=N)N)C(=O)N[C@@H](CCCCN)C(=O)N[C@@H](CCC(N)=O)C(=O)N[C@@H](CCCNC(=N)N)C(=O)NCCCCCC(=O)N[C@@H](CCCNC(=N)N)C(N)=O (stereo partly shown) [MACH 3] | – | 38 | no cytotoxicity |
| MACH 11: PMO IVS2-654 conjugate of peptide TSNLKLHLAPPVKKKALKKPLYKAKKKKKVVSPTWXTDQEW (SEQ ID NO: 66), designed to have poor activity (TSNLKLHLAPPVKKKALKKPLYKAKKKKKVVSPTW[Ahx]TDQEW; also: PMO IVS2-654 conjugate) | did not significantly improve PMO delivery | 4 | – |
| P1: PMO IVS2-654 conjugate of peptide KXKKQQGKKKHR (SEQ ID NO: 69) (K[Ahx]KKQQGKKKHR; also: PMO IVS2-654 conjugate) | – | 2.9 | – |
| P11: PMO IVS2-654 conjugate of peptide KKKKKQCKKKHRWPKXXC (SEQ ID NO: 79) (KKKKKQCKKKHRWPK[Ahx][Ahx]C; cysteine pairing not given here; also: PMO IVS2-654 conjugate) | – | 12.9 | – |
| MACH 6: PMO IVS2-654 conjugate of peptide ALKBRSAAKAVRWPKKAIKQASKKVAKYALKXXRKKKAASKXWLQLHWPRW (SEQ ID NO: 62) (ALK[βAla]RSAAKAVRWPKKAIKQASKKVAKYALK[Ahx][Ahx]RKKKAASK[Ahx]WLQLHWPRW; also: PMO IVS2-654 conjugate) | – | 43 | – |

— US20250228954A1, “Designing Antisense Oligonucleotide Delivery Peptides by Interpretable Machine Learning” (Sarepta Therapeutics, Inc., priority 2020, published 2025)
